The data set can be described thus: Diastereomer interconversion. It is filed as physicochemical. Conditions: in vitro and in vivo.

Turning to `Cn1c(=O)n([C@H]2CCC(=O)NC2=O)c2cccc(C#CCOC3CCN(C[C@H]4CC[C@H](n5cc(NC(=O)c6cnn7ccc(N8C[C@H]9C[C@@H]8CO9)nc67)c(C(F)F)n5)CC4)CC3)c21` [Compound B, 5-((1R,4R)-2-oxa-5-azabicyclo[2.2.1]heptan-5-yl)-N-(3-(difluoromethyl)-1-((1r,4R)-4-((4-((3-(1-((S)-2,6-dioxopiperidin-3-yl)-3-methyl-2-oxo-2,3-dihydro-1H-benzo[d]imidazol-4-yl)prop-2-yn-1-yl)oxy)piperidin-1-yl)methyl)cyclohexyl)-1H-pyrazol-4-yl)pyrazolo[1,5-a]pyrimidine-3-carboxamide], the Diastereomer interconversion entry is “interconvert rapidly”.
Under `Cn1c(=O)n([C@@H]2CCC(=O)NC2=O)c2cccc(C#CCOC3CCN(C[C@H]4CC[C@H](n5cc(NC(=O)c6cnn7ccc(N8C[C@H]9C[C@@H]8CO9)nc67)c(C(F)F)n5)CC4)CC3)c21` [Compound C, 5-((1R,4R)-2-oxa-5-azabicyclo[2.2.1]heptan-5-yl)-N-(3-(difluoromethyl)-1-((1r,4R)-4-((4-((3-(1-((R)-2,6-dioxopiperidin-3-yl)-3-methyl-2-oxo-2,3-dihydro-1H-benzo[d]imidazol-4-yl)prop-2-yn-1-yl)oxy)piperidin-1-yl)methyl)cyclohexyl)-1H-pyrazol-4-yl)pyrazolo[1,5-a]pyrimidine-3-carboxamide] stands “interconvert rapidly”.

For the origin of these results see patent publication US12171768B2, “IRAK4 degraders and uses thereof” (priority 2021, dated 2024).
